The values that follow come from patent US20200171005A9, “Heterobifunctional Pan-Selectin Antagonists Having a Triazole Linker” (GlycoMimetics, Inc., priority 2015, published 2020).

For test [1], the target named is T1, E-selectin (E-selectinLEC2 construct) (Homo sapiens, UniProt P16581).
T1 construct: a construct consisting of the lectin domain, the EGF like domain, and the first two short consensus repeats (E-selectinLEC2)
T1 sequence (P16581 22-301 limits assumed): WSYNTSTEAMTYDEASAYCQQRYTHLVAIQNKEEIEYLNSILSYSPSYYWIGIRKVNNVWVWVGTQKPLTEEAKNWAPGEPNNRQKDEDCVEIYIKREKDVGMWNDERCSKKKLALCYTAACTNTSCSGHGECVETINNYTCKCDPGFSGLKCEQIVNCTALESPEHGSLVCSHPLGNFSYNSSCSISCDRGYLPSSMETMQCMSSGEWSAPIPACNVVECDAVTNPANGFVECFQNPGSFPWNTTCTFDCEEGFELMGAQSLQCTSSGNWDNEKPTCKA
Nature of the test: Microscale Thermophoresis (MST) affinity assay for E-selectin. As to conditions: labeled E-selectinLEC2, HEPES buffer pH 7.4, 1 mM CaCl2, 25° C.; read-out: Binding Affinity (KD) to E-Selectin Determined by MST. Here is the method: For E-selectin, a construct consisting of the lectin domain, the EGF like domain, and the first two short consensus repeats (E-selectinLEC2) was labeled using the amine reactive protein labeling kit BLUE-NHS from NanoTemper Technologies GmbH (Munich, Germany).
The Microscale Thermophoresis (MST) experiments were carried out in a HEPES buffer adjusted to pH 7.4 containing 150 mM NaCl, 1 mM CaCl2 and 0.05% Tween 20 at a temperature of 25° C. with 50% LED power, 50% laser power, laser on time of 30 seconds, and laser off time of 5 seconds with standard treated capillaries. A fixed concentration of the labeled E-selectinLEC2 protein was incubated for 20 minutes with a 15-datapoint […] 1:1 dilution of ligand starting about 30 times above the expected KD. The observed data points were fitted using the single-site binding function of Alan Cooper, Tutorial Chemistry Texts, Vol 16: Biophysical Chemistry; Royal Society of Chemistry: Cambridge, 2004.
A general note: Microscale thermophoresis detects binding through changes in fluorescence in a small temperature gradient.

Test [2] addresses T2, P-selectin (P-selectin/IgG) (Homo sapiens, UniProt P16109).
T2 sequence (P16109 42-771): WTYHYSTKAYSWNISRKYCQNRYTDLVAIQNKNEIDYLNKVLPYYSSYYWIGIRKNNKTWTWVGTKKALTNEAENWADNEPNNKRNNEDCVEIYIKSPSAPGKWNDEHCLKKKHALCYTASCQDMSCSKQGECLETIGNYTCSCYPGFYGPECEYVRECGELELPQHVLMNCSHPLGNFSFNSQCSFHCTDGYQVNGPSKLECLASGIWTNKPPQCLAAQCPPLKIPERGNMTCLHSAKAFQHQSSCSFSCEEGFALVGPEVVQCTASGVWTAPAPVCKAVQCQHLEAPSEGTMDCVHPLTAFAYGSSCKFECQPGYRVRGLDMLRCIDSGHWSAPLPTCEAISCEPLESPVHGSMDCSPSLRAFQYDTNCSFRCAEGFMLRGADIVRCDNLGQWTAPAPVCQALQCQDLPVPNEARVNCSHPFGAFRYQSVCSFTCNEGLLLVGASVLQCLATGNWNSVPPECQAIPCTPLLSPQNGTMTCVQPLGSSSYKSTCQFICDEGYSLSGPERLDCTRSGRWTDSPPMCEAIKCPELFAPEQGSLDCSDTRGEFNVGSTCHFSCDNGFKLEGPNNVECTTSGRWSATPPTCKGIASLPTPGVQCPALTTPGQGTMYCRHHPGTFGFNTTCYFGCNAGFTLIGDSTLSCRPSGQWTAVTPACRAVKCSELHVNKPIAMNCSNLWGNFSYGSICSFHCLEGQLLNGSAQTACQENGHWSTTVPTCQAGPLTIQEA
Nature of the test: Cell-free P-selectin ligand competitive binding assay (sLe^a-PAA). The following applies: P-selectin/IgG coated plate, sLe^a-PAA streptavidin-POD complex, 25° C., 2 hours; read-out: IC50, Binding Affinity to P-Selectin Determined by Competitive Binding Assay. How it is done: The cell-free P-selectin ligand binding assay was adapted from Weitz-Schmidt et al (G. Weitz-Schmidt, D. Stokmaier, G. Scheel, N. E. Nifant'ev, A. B. Tuzikov, N. V. Bovin, Anal Biochem 1996, 238, 184-190). A MaxiSorp 96-well flat bottom microtiter plate purchased from Nalge Nunc International (Penfield, N.Y., USA) was coated with P-selectin/IgG by incubation with 100 μL/well of the purified protein at a concentration of 3 μg/ml in 10 mM HEPES-NaOH pH 7.4, 150 mM NaCl, 1 mM CaCl2 (HAB-Ca^+). After an overnight incubation at 4° C., the plate was washed three times with HAB-Ca^+ followed by a 2 hour incubation with 200 μL/well of a solution of 3% BSA in HAB-Ca^+ at room temperature to block nonspecific binding. During this incubation, inhibitory test compounds, diluted in HAB-Ca^+, were titrated by a twofold serial and mixed with an equal volume of 0.2 μg/ml of a preformed complex of a biotinylated sialyl Lewis' polyacrylamide polymer (sLe^a-PAA) purchased form GlycoTech Inc. (Gaithsburg, Md., USA) and horseradish peroxidase-labeled streptavidin (streptavidin-POD) purchased from Roche (Rotkreuz, Switzerland). After blocking, the microtiter plate was washed three times with HAB-Ca^+ and 100 μL/well of the inhibitor dilution series premixed with sLe^a-PAA streptavidin-POD complex was transferred to the different wells of the plate. The binding reaction was allowed to proceed at 25° C. After 2 hours, the plate was washed twice with HAB-Ca^+, and 100 μL/well of ABTS (2,2′-azino-bis[3-ethylbenzthiazoline-6-sulfonic acid]) substrate reagent purchased from Invitrogen (Paisley, UK) was added to each well. Adding 100 μL/well of 2% oxalic acid stopped the colorimetric reaction was after 5 minutes. The optical density was determined at […] (SpectraMax). The concentration of antagonist required to inhibit binding by 50% was determined and is reported as the IC50 value.

Consider `CCC1CC(C(=O)NCCCc2cn(CCCC(=O)Nc3cc(S(=O)(=O)O)cc4cc(S(=O)(=O)O)cc(S(=O)(=O)O)c34)nn2)CC(OC2OC(CO)C(O)C(OC(CC3CCCCC3)C(=O)O)C2OC(=O)c2ccccc2)C1OC1OC(C)C(O)C(O)C1O` (centres unmarked) [Compound 15b], for which the Kd (as a rule, a measure of binding affinity in units of concentration) in test [1] is 0.97 µM. Further, the IC50 (commonly the midpoint of a concentration-inhibition curve) in test [2] turned out to be 82 µM.
For `CC1CC(C(=O)NCCCc2cn(CCC(=O)Nc3cc(S(=O)(=O)O)cc4cc(S(=O)(=O)O)cc(S(=O)(=O)O)c34)nn2)CC(OC2OC(CO)C(O)C(OC(CC3CCCCC3)C(=O)O)C2OC(=O)c2ccccc2)C1OC1OC(C)C(O)C(O)C1O` (centres unmarked) [Compound 17], the Kd in test [1] was 3 µM. Besides, in test [2], the IC50 worked out at 185 µM.
For `CCC1CC(C(=O)NCCCc2cn(CCCCC(=O)Nc3cc(S(=O)(=O)O)cc4cc(S(=O)(=O)O)cc(S(=O)(=O)O)c34)nn2)CC(OC2OC(CO)C(O)C(OC(CC3CCCCC3)C(=O)O)C2OC(=O)c2ccccc2)C1OC1OC(C)C(O)C(O)C1O` (centres unmarked) [Compound 15c], in that order: 1.2 µM and 210 µM.
For `CCC1CC(C(=O)NCCCc2cn(CCC(=O)Nc3cc(S(=O)(=O)O)cc4cc(S(=O)(=O)O)cc(S(=O)(=O)O)c34)nn2)CC(OC2OC(CO)C(O)C(OC(CC3CCCCC3)C(=O)O)C2OC(=O)c2ccccc2)C1OC1OC(C)C(O)C(O)C1O` (centres unmarked) [Compound 15a], the Kd in test [1] turned out to be 1.5 µM. The IC50 in test [2] was found to be 94 µM.
